Data published in US11352322B2, “Cyclopropyl-amide compounds as dual LSD1/HDAC inhibitors” (Jubilant Epicore LLC, priority 2016, dated 2022).
pEC50, pIC50: −log10 of the molar value. Counter-ions that a name gives are not always drawn. Like-named read-outs stand apart in the source and are kept apart here.

Key:
LSD1 = LSD1 (Homo sapiens (Human), UniProt O60341); assay: TR-FRET Assay for LSD1; conditions: read-out: LSD1 IC50
Description: TR-FRET Assay for LSD1 (Perkin Elmer)
Tranylcypromine (TCP), LSD1 inhibitor was procured from Selleckchem. […] Stop Solution containing 300 μM tranylcypromine in 1× LANCE Detection Buffer was added to the wells and incubated for 5 min at RT. Then, Detection mix containing 2 nM Eu-Ab and 50 nM ULight-Streptavidin in 1× LANCE Detection Buffer was prepared and added to the reaction mix. This mixture was incubated for 1 hour at room temperature.

[1] = target: HDAC6 human recombinant enzyme (Homo sapiens (Human), UniProt Q9UBN7); assay: Histone Deacetylase Assay (BPS Biosciences), HDAC6; assay type: biochemical
Sequence of HDAC6 human recombinant enzyme (Q9UBN7 whole entry): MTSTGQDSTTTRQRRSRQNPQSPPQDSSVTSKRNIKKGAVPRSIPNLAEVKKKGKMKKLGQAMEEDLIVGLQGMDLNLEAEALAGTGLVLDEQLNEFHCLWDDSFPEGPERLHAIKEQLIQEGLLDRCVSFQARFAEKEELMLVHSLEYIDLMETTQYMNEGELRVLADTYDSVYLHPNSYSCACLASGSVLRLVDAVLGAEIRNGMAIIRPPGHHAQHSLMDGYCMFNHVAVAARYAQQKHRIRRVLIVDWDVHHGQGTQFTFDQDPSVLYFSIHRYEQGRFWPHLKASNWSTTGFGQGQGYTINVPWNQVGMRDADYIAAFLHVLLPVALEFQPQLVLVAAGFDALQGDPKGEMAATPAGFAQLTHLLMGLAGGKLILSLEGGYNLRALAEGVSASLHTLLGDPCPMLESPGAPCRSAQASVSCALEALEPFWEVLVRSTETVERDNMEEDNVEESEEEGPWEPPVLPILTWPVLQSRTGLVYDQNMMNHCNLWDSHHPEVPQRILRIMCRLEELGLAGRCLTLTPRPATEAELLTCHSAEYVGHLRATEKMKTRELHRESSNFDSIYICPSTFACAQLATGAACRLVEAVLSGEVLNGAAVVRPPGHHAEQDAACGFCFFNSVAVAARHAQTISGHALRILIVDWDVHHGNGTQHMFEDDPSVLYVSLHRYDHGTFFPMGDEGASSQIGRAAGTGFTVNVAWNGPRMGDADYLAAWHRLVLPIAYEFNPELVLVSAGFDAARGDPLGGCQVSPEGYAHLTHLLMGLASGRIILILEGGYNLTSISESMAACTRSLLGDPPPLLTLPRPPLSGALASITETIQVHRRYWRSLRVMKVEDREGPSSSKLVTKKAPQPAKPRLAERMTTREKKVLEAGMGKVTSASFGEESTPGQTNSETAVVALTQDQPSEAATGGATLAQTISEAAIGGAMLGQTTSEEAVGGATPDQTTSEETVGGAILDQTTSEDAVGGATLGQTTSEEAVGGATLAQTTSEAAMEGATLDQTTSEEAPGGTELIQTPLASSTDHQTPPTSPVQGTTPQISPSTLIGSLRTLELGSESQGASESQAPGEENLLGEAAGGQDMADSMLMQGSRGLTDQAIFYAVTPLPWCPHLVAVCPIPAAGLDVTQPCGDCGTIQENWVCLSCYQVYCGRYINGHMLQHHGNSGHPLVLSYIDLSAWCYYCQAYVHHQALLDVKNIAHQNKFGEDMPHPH
Description: Histone Deacetylase Assay (BPS Biosciences)
Histone deacetylase assay was done as per manufacturer's instructions.

MM1S = assay: Anticancer activity: Alamar Blue assay, MM1S; assay type: cell-based; conditions: Homo sapiens, MM1.S, read-out: MM1S EC50
Description: Cells were seeded at 5000 cells/per well in 96-well tissue culture plate and incubated at 37° C./5% CO2. After 16-24 hours, fresh media was added to the wells. Compounds were then (1% DMSO conc.) added to the cells at 10 concentrations ranging from 10-0.0005 uM prepared in 3-fold serial dilutions. Cells were incubated for 68-72 h at 37° C./5% CO2. Alamar Blue™ reagent was added and incubated for 1-3 hours at 37° C./5% CO2. Plates were read on fluorescence reader at 540 nm excitation, 590 nm emission wave lengths.

[2] = Metabolic stability in liver microsomes, MLM; conditions: 1 μM, NADPH
Description: (§1) The microsomal suspension was prepared by adding liver microsomes to 100 mM potassium phosphate buffer (pH7.4) to give a final protein concentration of 0.5 mg/mL. The stock solution of NCE (10 mM in DMSO) was added to the microsomes to provide a final concentration of 1 μM. […] Samples were vortexed and centrifuged at 5,000 rpm for 10 min to remove proteins. Supernatant were analyzed on LC-MS/MS.

[3] = Metabolic stability in liver microsomes, HLM; conditions: 1 μM, NADPH
Description: as §1

Compound | pIC50 (LSD1) | pIC50 [1] | pEC50 (MM1S; MM1S cells) | Metabolic stability MLM % remaining in 30 min [2] | Metabolic stability HLM % remaining in 30 min [3] | pEC50 (MM1S)
CC(C)n1cc(C2CC2NCC2CCN(CCCc3ccc(C(=O)Nc4ccccc4N)cc3)CC2)cn1 (stereo not drawn) [Example 128, N-(2-aminophenyl)-4-(3-(4-(((2-(1-isopropyl-1H-pyrazol-4-yl)cyclopropyl)amino)methyl)piperidin-1-yl)propyl)benzamide TFA Salt] | 6.89 | < 5.00 | 7.15 |  |  | 
Nc1ccccc1NC(=O)c1ccc(S(=O)(=O)N2CCC(CNC3CC3c3ccccc3)CC2)cc1 (stereo not drawn) [Example 160, N-(2-aminophenyl)-4-((4-(((2-phenylcyclopropyl)amino)methyl)piperidin-1-yl)sulfonyl)benzamide TFA Salt] | 7.37 | < 5.00 | 6.75 |  |  | 
Nc1ccccc1NC(=O)c1coc(CCCN2CCC(CNC3CC3c3ccccc3)CC2)n1 (stereo not drawn) [Example 153, N-(2-aminophenyl)-2-(3-(4-(((2-phenylcyclopropyl)amino)methyl)piperidin-1-yl)propyl)oxazole-4-carboxamide TFA Salt] | 7.62 | < 5.00 | 6.24 |  |  | 
Nc1ccccc1NC(=O)c1ccc(OCCN2CCC(CNC3CC3c3ccc(F)cc3)CC2)nc1 (stereo not drawn) [Example 149, N-(2-aminophenyl)-6-(2-(4-(((2-(4-fluorophenyl)cyclopropyl)amino)methyl)piperidin-1-yl)ethoxy)nicotinamide TFA Salt] | 7.68 | < 5.00 | < 5.00 |  |  | 
O=C(NO)c1ccc(CCCn2cc(CNC3CC3c3ccccc3)cn2)cc1 (stereo not drawn) [Example 76, N-hydroxy-4-(3-(4-(((2-phenylcyclopropyl)amino)methyl)-1H-pyrazol-1-yl)propyl)benzamide TFA Salt] | 7.08 | 7.66 | 7.38 |  |  | 
CC(C)n1cc(C2CC2NCC2CCN(CCCc3ccc(C(=O)NO)cc3)CC2)cn1 (stereo not drawn) [Example 67, N-hydroxy-4-(3-(4-(((2-(1-isopropyl-1H-pyrazol-4-yl)cyclopropyl)amino)methyl)piperidin-1-yl)propyl)benzamide TFA Salt] | 6.32 | 6.57 | 7.15 |  |  | 
O=C(NO)c1cnc(CCCN2CCC(CNC3CC3c3ccccc3)CC2)s1 (stereo not drawn) [Example 112, N-hydroxy-2-(3-(4-(((2-phenylcyclopropyl)amino)methyl)piperidin-1-yl)propyl)thiazole-5-carboxamide TFA Salt] | 7.66 | 6.29 | 7.20 |  |  | 
O=C(NO)C1CCC(NC2CC2c2ccccc2)CC1 (stereo not drawn) [Example 33, 4-(2-Phenyl-cyclopropylamino)-cyclohexanecarboxylic Acid Hydroxyamide TFA Salt] | 5.65 | < 6.00 |  |  |  | 
O=C(NO)c1ccc(CCCn2cnc(CNC3CC3c3ccccc3)c2)cc1 (stereo not drawn) [Example 75, N-hydroxy-4-(3-(4-(((2-phenylcyclopropyl)amino)methyl)-1H-imidazol-1-yl)propyl) benzamide TFA Salt] | 6.54 | 6.44 | 6.61 |  |  | 
O=C(NO)c1ccc(Cn2cc(CNC3CC3c3ccccc3)nn2)cc1 (stereo not drawn) [Example 41, N-hydroxy-4-((4-(((2-phenylcyclopropyl)amino)methyl)-1H-1,2,3-triazol-1-yl)methyl)benzamide TFA Salt] | 6.50 | 7.13 |  |  |  | 
O=C(NO)c1ccc(OCCN2CCC(CNC3CC3c3ccccc3)CC2)nc1 (stereo not drawn) [Example 97, N-hydroxy-6-(2-(4-(((2-phenylcyclopropyl)amino)methyl)piperidin-1-yl)ethoxy)nicotinamide TFA Salt] | 7.48 | < 5.00 | < 5.00 |  |  | 
Cn1cc(-c2ccc(C3CC3NCC3CCN(Cc4ccc(C(=O)NO)cc4)CC3)cc2)ccc1=O (stereo not drawn) [Example 35, N-hydroxy-4-((4-(((2-(4-(1-methyl-6-oxo-1,6-dihydropyridin-3-yl)phenyl)cyclopropyl)amino)methyl)piperidin-1-yl)methyl)benzamide TFA Salt] | 7.47 | 6.70 | 5.84 |  |  | 
O=C(NO)c1ccc(CS(=O)(=O)NCCN2CCC(CNC3CC3c3ccccc3)CC2)cc1 (stereo not drawn) [Example 86, N-hydroxy-4-((N-(2-(4-(((2-phenylcyclopropyl)amino)methyl)piperidin-1-yl)ethyl)sulfamoyl)methyl)benzamide TFA Salt] | 7.74 |  |  | 58% | 71% | 6.17
O=C(NO)c1ccc(N2CCC(CNC3CC3c3ccc(F)cc3)CC2)cc1 (stereo not drawn) [Example 22, 4-(4-(((2-(4-fluorophenyl)cyclopropyl)amino)methyl)piperidin-1-yl)-N-hydroxybenzamide TFA Salt] | 5.19 |  |  | 38% | 60% | 7.36
O=C(/C=C/c1ccc(CNC2CC2c2ccc(-c3cncnc3)cc2)cc1)NO (stereo not drawn) [Example 7, (E)-N-hydroxy-3-(4-(((2-(4-(pyrimidin-5-yl)phenyl)cyclopropyl)amino)methyl)phenyl)acrylamide TFA Salt] | 7.57 |  |  | < 5% | 70% | 7.32
Cc1noc(C)c1-c1ccc(C2CC2NCC2CCN(Cc3ccc(C(=O)NO)cn3)CC2)cc1 (stereo not drawn) [Example 39, 6-((4-(((2-(4-(3,5-dimethylisoxazol-4-yl)phenyl)cyclopropyl)amino)methyl)piperidin-1-yl)methyl)-N-hydroxynicotinamide TFA Salt] | 7.47 |  |  | > 95% | 87% | 5.53
Cc1noc(C)c1-c1ccc(C2CC2NCC2CCN(Cc3ccc(C(=O)NO)cc3)CC2)cc1 (stereo not drawn) [Example 37, 4-((4-(((2-(4-(3,5-dimethylisoxazol-4-yl)phenyl)cyclopropyl)amino)methyl)piperidin-1-yl)methyl)-N-hydroxybenzamide TFA salt] | 7.37 |  |  | 55% | 86% | 5.76
O=C(NO)c1ccc(OCCN2CCC(CNC3CC3c3ccc(F)cc3)CC2)nc1 (stereo not drawn) [Example 96, 6-(2-(4-(((2-(4-fluorophenyl)cyclopropyl)amino)methyl)piperidin-1-yl)ethoxy)-N-hydroxynicotinamide TFA Salt] | 7.66 |  |  | 89% | 93% | < 5.00
Cn1cc(-c2ccc(C3CC3NCC3CN(CCCc4ccc(C(=O)NO)cc4)C3)cc2)cn1 (stereo not drawn) [Example 63, N-hydroxy-4-(3-(3-(((2-(4-(1-methyl-1H-pyrazol-4-yl)phenyl)cyclopropyl)amino)methyl)azetidin-1-yl)propyl)benzamide TFA Salt] | 7.51 |  |  | 69% | 86% | 6.72
O=C(NO)c1ccc(CN2CCC(CNC3CC3c3ccc(-c4cncnc4)cc3)CC2)cc1 (stereo not drawn) [Example 38, N-hydroxy-4-((4-(((2-(4-(pyrimidin-5-yl)phenyl)cyclopropyl)amino)methyl)piperidin-1-yl)methyl)benzamide TFA Salt] | 7.28 |  |  | > 95% | 87% | 5.44
